Experimental findings from ChEMBL document CHEMBL5357055, “Protoilludane-Type and Related Nor-Sesquiterpenes from Phellinus hartigii and Their Anti-Hypertrophic Activities in Rat Cardiomyocytes” (J Nat Prod, 2024) are described below.

Data set [1] is described as follows: Cytotoxicity against NRCM cells assessed as reduction in cell viability measured after 48 hrs by CCK-8 method. It counts as toxicity, cell-based. Particulars: rat.
For data set [2], the system named is NRCM. In words: Anticardiac hypertrophic activity in phenylephrine-induced hypertrophy in Sprague-Dawley rat NRCM cells assessed as reduction in inhibition of ANP level at 50 uM preincubated for 12 hrs followed by phenylephrine stimulation and measured after 48 hrs by Westernblot analysis. The following applies: time 60.0 hrs. It counts as functional, cell-based.

The test system of data set [3] is NRCM. In words: Anticardiac hypertrophic activity in phenylephrine-induced hypertrophy in Sprague-Dawley rat NRCM cells assessed as reduction in NPPA mRNA expression level at 50 uM preincubated for 12 hrs followed by phenylephrine stimulation and measured after 48 hrs by qRT-PCR analysis. The data set is classed as functional, cell-based. The following applies: time 60.0 hrs.

Data set [4] has as its system NRCM. In words: Anticardiac hypertrophic activity in phenylephrine-induced hypertrophy in Sprague-Dawley rat NRCM cells assessed as attenuation of cardiomyocyte hypertrophy preincubated for 12 hrs followed by phenylephrine stimulation and measured after 48 hrs by 488-I Phalloidin/DAPI staining based fluorescence microscopic analysis. The data set is classed as functional, cell-based. Particulars: time 60.0 hrs.

Data set [5] relates to NRCM. In words: Anticardiac hypertrophic activity in phenylephrine-induced hypertrophy in Sprague-Dawley rat NRCM cells assessed as reduction in inhibition of MYH7 level at 50 uM preincubated for 12 hrs followed by phenylephrine stimulation and measured after 48 hrs by Westernblot analysis. The data set is classed as functional, cell-based. The following applies: time 60.0 hrs.

Data set [6] deals with NRCM. In words: Anticardiac hypertrophic activity in phenylephrine-induced hypertrophy in Sprague-Dawley rat NRCM cells assessed as reduction in NPPB mRNA expression level at 50 uM preincubated for 12 hrs followed by phenylephrine stimulation and measured after 48 hrs by qRT-PCR analysis. It counts as functional, cell-based. The following applies: time 60.0 hrs.

The source made the active and inactive calls. No cut-off for these calls is given here.

For the compound `C[C@@]12CC[C@@](C)(C1=O)[C@H]1C[C@H](C(=O)O)C[C@H]1C2`, the CC50 at 48 h in data set [1] was > 50 µM. Also, the result with NRCM [2], in the data set on NRCM [3], in the data set on NRCM [4], with NRCM [5] and in the data set with NRCM [6] was Active.

For the compound `COC(=O)[C@@H]1C[C@@H]2C[C@@H](C)[C@@H]3C(=O)C[C@]3(C)[C@H]2C1`, the CC50 at 48 h in data set [1] is > 50 µM. Also, the result in the data set on NRCM [2], with NRCM [3], in the data set with NRCM [4], with NRCM [5] and in the data set with NRCM [6] was Active.

On to `COC(=O)[C@@H]1C[C@@H]2C[C@@H](C)[C@@H]3OC(=O)C[C@]3(C)[C@H]2C1`, for which, in data set [1], the CC50 at 48 h was > 50 µM. Also, the result in the data set with NRCM [2], in the data set on NRCM [3], in the data set with NRCM [4], in the data set with NRCM [5] and in the data set with NRCM [6] was Active.
